From patent publication US9539256B2 (THE BOARD OF REGENTS OF THE UNIVERSITY OF TEXAS SYSTEM, priority 2012, dated 2017)
Entries after “also recorded” stand apart in the source; their conditions may differ.

How the values were obtained:
[1] = molecular target: T1, EPAC1 (Homo sapiens, UniProt O95398); experiment: Phosphorylation of Akt in HEK293/EPAC1 cells; type: cell-based; details: 10 μM for 5 min before 007-AM
T1 sequence (O95398 1-923): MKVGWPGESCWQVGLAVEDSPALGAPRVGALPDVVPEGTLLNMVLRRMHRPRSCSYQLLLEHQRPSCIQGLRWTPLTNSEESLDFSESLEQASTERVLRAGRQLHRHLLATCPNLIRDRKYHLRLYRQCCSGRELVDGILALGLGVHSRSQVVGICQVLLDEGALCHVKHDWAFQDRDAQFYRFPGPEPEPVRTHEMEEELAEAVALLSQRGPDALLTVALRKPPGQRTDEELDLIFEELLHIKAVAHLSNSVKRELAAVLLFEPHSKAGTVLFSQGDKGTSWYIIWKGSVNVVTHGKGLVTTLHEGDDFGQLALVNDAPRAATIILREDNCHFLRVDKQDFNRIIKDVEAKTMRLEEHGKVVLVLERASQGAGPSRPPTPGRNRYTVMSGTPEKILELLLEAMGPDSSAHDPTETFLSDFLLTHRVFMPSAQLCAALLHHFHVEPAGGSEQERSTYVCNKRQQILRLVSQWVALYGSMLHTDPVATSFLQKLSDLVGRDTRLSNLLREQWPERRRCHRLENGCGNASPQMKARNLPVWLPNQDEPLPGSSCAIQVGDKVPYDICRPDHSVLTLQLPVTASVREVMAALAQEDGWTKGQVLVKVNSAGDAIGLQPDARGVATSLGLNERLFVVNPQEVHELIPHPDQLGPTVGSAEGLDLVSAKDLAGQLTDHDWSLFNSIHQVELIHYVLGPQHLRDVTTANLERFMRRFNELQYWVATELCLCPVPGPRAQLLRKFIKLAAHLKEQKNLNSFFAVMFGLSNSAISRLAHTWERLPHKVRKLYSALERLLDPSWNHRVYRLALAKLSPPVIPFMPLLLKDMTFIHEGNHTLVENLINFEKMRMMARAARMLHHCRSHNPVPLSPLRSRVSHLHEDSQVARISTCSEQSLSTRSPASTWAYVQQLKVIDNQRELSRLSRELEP
Procedure: FIG. 10. Effect of ESI-09 on EPAC-mediated PKB phosphorylation in HEK293/EPAC1, HEK293/EPAC2, and human vascular smooth muscle (hVSMC) cells. Serum-starved HEK293/EPAC1, HEK293/EPAC2, and hVSMC cells with or without pretreatment of […] ESI-09 were stimulated with 10 μM 007-AM. Cell lysates were subjected to Western blot analysis as described under “Experimental Procedures” using anti-phospho-Ser473-specific (PKB-P473) and anti-phospho-Thr308-specific (PKB-P308) PKB antibodies.
Cellular proteins from cell lysates treated with various reagents were separated by SDS-PAGE and transferred to polyvinylidene difluoride membrane. The levels of Akt activation were probed by immuno-blotting analyses using anti-phosphate T308 PKB antibodies (1:1000) and anti-phosphate S473 PKB antibodies (1:1000). At least three independent experiments were performed for each Western blot.

[2] = In vivo pharmacokinetic study, blood time-concentration curve; details: single IP injection 10 mg/kg, mice
Procedure: FIG. 19. Mice blood time-concentration curve of ESI-09.
To determine the bioavailability of EPAC inhibitors, an IP injection formulation was developed in which the compounds were dissolved in ethanol and then diluted 1:10 with a 10% Tween 80 in normal saline solution. This formulation was determined suitable by passing the simulated in vivo blood dilution assay. In vivo pharmacokinetic studies were performed in four week old female C57BL6/N mice.

[3] = tested on: MIA PaCa-2; experiment: Orthotopic MIA PaCa-2 pancreatic cancer metastasis model; type: in vivo; details: athymic nude mice; 50 mg/kg per day, oral gavage; weekly bioluminescence imaging; 50 mg/kg/day
Procedure: FIG. 14. ESI-09 inhibits PDA metastasis in vivo. MIA PaCa-2 stably expressing luciferase was orthotopically implanted into the pancreas of athymic nude mice. The mice were randomly divided into two groups and treated with vehicle or ESI-09 (50 mg/kg, oral gavage), respectively. The growth and metastasis of the tumors were monitored by weekly bioluminescence imaging using the IVIS bioluminescence imaging system.
It has been recently reported that EPAC1 is over-expressed in pancreatic adenocarcinoma (Lorenz et al. (2008) Pancreas 37: 102-103). However, the functional role of EPAC1 elevation in this neoplasm is not clear. The inventors sought to employ ESI-09 to determine the role of EPAC1 signaling in pancreatic cancer. […] In order to determine if the observed impact on cell migration is EPAC1 specific, the effect of suppressing EPAC1 expression on AsPC-1 and PANC-1 migration using RNAi was examined. […] To further determine how ESI-09 inhibits PDA cell migration and invasion, a cell adhesion assay was performed using a collagen I matrix. […] To determine the in vivo anti-metastatic effect of ESI-09, MIA PaCa-2 stably expressing luciferase were orthotopically implanted into the pancreas of athymic nude mice. […] The growth and metastasis of the tumors were monitored by weekly bioluminescence imaging using the IVIS bioluminescence imaging system.

[4] = molecular target: T1, EPAC1; experiment: Rap1-GDP exchange (GEF) activity assay, EPAC1

With CC(C)(C)c1cc(C(=O)C(C#N)=NNc2cccc(Cl)c2)no1 [ESI-09, 3-(5-Tert-Butyl-Isoxazol-3-Yl)-2-[(3-Chlorophenyl)-Hydrazono]-3-Oxo-Propionitrile] the “EPAC1-mediated Akt phosphorylation (T308 and S473)” value [1] was “completely blocked”, the half-life ([2]; female, C57BL6/N, mouse, whole blood) was 3.5 h and the “blood levels, maximal values” [2] was 42,520 ng/ml. For the same compound, the “time of maximal blood level” value [2] was 0.5 h, the PDA metastasis [3] was “reduced; also recorded: inhibits” and the IC50 [4] was 3.2 µM.
